For one series, the system named is breast cancer (MCF-7). The series can be described thus: MTT antiproliferative assay, MCF-7. Particulars: for Growth inhibition (%) MCF-7: 100 μM, MTT; for inhibition at 100 µM: MCF7, read-out: Growth inhibition (%) MCF-7. A general note: Formazan colour is commonly taken as a measure of viable cells.
Another series relates to prostate cancer (PC-3). The series can be described thus: MTT antiproliferative assay, PC-3. Particulars: for Growth inhibition (%) PC-3: 100 μM, MTT; for inhibition at 100 µM: read-out: Growth inhibition (%) PC-3.
A further series deals with colon cancer (HCT-116). The series can be described thus: MTT antiproliferative assay, HCT-116. Particulars: for Growth inhibition (%) HCT-116: 100 μM; for inhibition at 100 µM: HCT-116, read-out: Growth inhibition (%) HCT-116.
The subject of another series is lung cancer (A-549). The series can be described thus: MTT antiproliferative assay, A-549. Conditions: for Growth inhibition (%) A549: 100 μM, MTT; for inhibition at 100 µM: A549, read-out: Growth inhibition (%) A549.

Procedure for breast cancer (MCF-7): (§1) Preliminary screening against the cancer cell lines was performed, using doxorubicin as a reference drug at doses of 100 μM.
(§2) In vitro cytotoxicity was carried out using MTT assay protocol[63] as described in Supplementary data.
(§3) proliferative activity was assessed quantitatively as follows;
(§4) Human cancer cell lines were dropped in 96-well plates at a density of 3-8 × 10^3 cells/well.
(§5) growth medium was exchanged with 0.1 ml of fresh medium containing graded concentrations of the test compounds to be or equal DMSO and incubated for two days. Then 10 μl MTT solution (0.5 mg/ml) was added to each well, and the cells were incubated for additional 4 h. The crystals of MTT-formazan were dissolved in 100 μl of DMSO; the absorbance of each well was measured at 490 nm using an automatic ELISA reader system (TECAN, CHE). The IC50 values were calculated using the nonlinear regression fitting models (Graph Pad, Prism Version 5). The data represented the mean of three independent experiments in triplicate and were expressed as means
(§6) The results were expressed as growth inhibitory concentration (IC50) values and
Procedure for colon cancer (HCT-116): as §1, §2, §3, §4, §5, §6
Procedure for lung cancer (A-549): as §1, §2, §3, §4, §5, §6
Procedure for prostate cancer (PC-3): as §1, §2, §3, §4, §5, §6

Consider “3-Amino-6–(4-methoxyphenyl)-8-(p-tolyl)-2,3-dihydropyrido[2,3-d][1, 2, 4] triazolo[4,3-a]pyrimidin-5(1H)-one [Compound 11c]”, for which the “Growth inhibition (%) MCF-7” value with breast cancer (MCF-7) is 23%. In addition, in the series with prostate cancer (PC-3), the “Growth inhibition (%) PC-3” value is given as 28%. Moreover, in the series on colon cancer (HCT-116) (MTT), the “Growth inhibition (%) HCT-116” value is 3%. Further, in the series on lung cancer (A-549), the “Growth inhibition (%) A549” value stood at 26%.

Take “3-Amino-8-(p-Tolyl)-6–(3,4,5-trimethoxyphenyl)-2,3-dihydropyrido[2,3-d][1, 2, 4]triazolo[4,3-a]pyrimidin-5(1H)-one [Compound 11e]”: the “Growth inhibition (%) MCF-7” value in the series on breast cancer (MCF-7) is on record as 23%. The “Growth inhibition (%) PC-3” value in the series with prostate cancer (PC-3) was found to be 22%. In addition, the “Growth inhibition (%) HCT-116” value with colon cancer (HCT-116) (MTT) is given as 6%. Besides, the “Growth inhibition (%) A549” value in the series on lung cancer (A-549) is reported as 30%.

For “3-Amino-8–(4-chlorophenyl)-6-(p-tolyl)-2,3-dihydropyrido[2,3-d][1, 2, 4] triazolo[4,3-a]pyrimidin-5(1H)-one [Compound 11b]”, in the series on breast cancer (MCF-7), the “Growth inhibition (%) MCF-7” value was 29%. In addition, in the series with prostate cancer (PC-3), the “Growth inhibition (%) PC-3” value is on record as 43%. In addition, the “Growth inhibition (%) HCT-116” value with colon cancer (HCT-116) (MTT) worked out at 15%. In the series with lung cancer (A-549), the “Growth inhibition (%) A549” value is 28%.

Regarding “3-Amino-8–(4-chlorophenyl)-6–(2,4-dichlorophenyl)-10,10a-dihydropyrido [2,3-d][1, 2, 4]triazolo[4,3-a]pyrimidin-5(1H)-one [Compound 11a]”, the “Growth inhibition (%) MCF-7” value in the series with breast cancer (MCF-7) came to 7%. Besides, the “Growth inhibition (%) PC-3” value with prostate cancer (PC-3) is 30%. Moreover, the “Growth inhibition (%) HCT-116” value in the series on colon cancer (HCT-116) (MTT) is on record as 9%. The “Growth inhibition (%) A549” value in the series on lung cancer (A-549) amounted to 2%.

Take “3-Amino-8–(4-chlorophenyl)-6–(3,4,5-trimethoxyphenyl) -2,3dihydropyrido[2,3-d][1, 2, 4]triazolo[4,3-a] pyrimidin-5(1H)-one [Compound 11d]”: in the series on breast cancer (MCF-7), the “Growth inhibition (%) MCF-7” value is reported as 37%. For the same molecule, in the series on prostate cancer (PC-3), the “Growth inhibition (%) PC-3” value stood at 20%. For the same molecule, the “Growth inhibition (%) HCT-116” value in the series on colon cancer (HCT-116) (MTT) is recorded as 3%. For the same molecule, the “Growth inhibition (%) A549” value with lung cancer (A-549) is listed as 5%.

Broadly, the inhibition is how much of the control response was suppressed. As usually defined, the melting point is the temperature, or range, at which the solid turns liquid. Regarding `O=c1[nH]c(=S)[nH]c2nc(-c3ccc(Cl)cc3)cc(-c3ccc(Cl)cc3Cl)c12` [Compound 7a, 7–(4-Chlorophenyl)-5–(2,4-dichlorophenyl)-2-thioxo-2,3-dihydropyrido [2,3-d]pyrimidin-4(1H)-one], the melting point was 318 to 320 °C. In addition, the inhibition at 100 µM in the series on breast cancer (MCF-7) (Homo sapiens) amounted to 34%. For the same molecule, the inhibition at 100 µM with prostate cancer (PC-3) (Homo sapiens) worked out at 12%. The inhibition at 100 µM with colon cancer (HCT-116) (Homo sapiens) came out at 18%. Also, the inhibition at 100 µM with lung cancer (A-549) (Homo sapiens) was found to be 14%.

As for `COc1cc(-c2cc(-c3ccc(Cl)cc3)nc3nc4[nH]c5ccccc5c(=O)n4c(=O)c23)cc(OC)c1OC` [Compound 8c, 2–(4-Chlorophenyl)-4–(3,4,5-trimethoxyphenyl)-5H-pyrido [2',3':4,5] pyrimido[2,1-b]quinazoline-5,7(12H)-dione], the melting point was less than 300 °C. In addition, in the series on breast cancer (MCF-7) (Homo sapiens), the inhibition at 100 µM came to 21%. Moreover, in the series on prostate cancer (PC-3) (Homo sapiens), the inhibition at 100 µM was found to be 17%. In the series with colon cancer (HCT-116) (Homo sapiens), the inhibition at 100 µM was 9%. The inhibition at 100 µM in the series with lung cancer (A-549) (Homo sapiens) came out at 8%.

Consider `Cc1ccc(-c2cc(-c3ccc(Cl)cc3)nc3nc4[nH][nH]c(=O)n4c(=O)c23)cc1` [Compound 10a, 8-(4-Chlorophenyl)-6-(p-tolyl)-1,2-dihydropyrido[2,3-d][1,2, 4]triazolo[4,3-a]pyrimidine-3,5-dione], for which the melting point lay in the range of 347 to 349 °C. Moreover, the inhibition at 100 µM with breast cancer (MCF-7) (Homo sapiens) came to 41%. For the same molecule, the inhibition at 100 µM in the series with prostate cancer (PC-3) (Homo sapiens) was found to be 29%. In the series on colon cancer (HCT-116) (Homo sapiens), the inhibition at 100 µM was 21%. In addition, the inhibition at 100 µM with lung cancer (A-549) (Homo sapiens) was found to be 17%.

For `COc1ccc(-c2cc(-c3ccc(C)cc3)nc3nc4[nH][nH]c(=O)n4c(=O)c23)cc1` [Compound 10b, 6-(4-Methoxyphenyl)-8-(p-tolyl)-1,2-dihydropyrido[2,3-d][1,2, 4]triazolo[4,3-a]pyrimidine-3,5-dione], the melting point lay within 366 to 368 °C. Also, the inhibition at 100 µM with breast cancer (MCF-7) (Homo sapiens) was 4%. The inhibition at 100 µM in the series with prostate cancer (PC-3) (Homo sapiens) was found to be 15%. In the series with colon cancer (HCT-116) (Homo sapiens), the inhibition at 100 µM was 14%. For the same molecule, the inhibition at 100 µM in the series with lung cancer (A-549) (Homo sapiens) was 7%.

`COc1cc(-c2cc(-c3ccc(Cl)cc3)nc3nc4[nH][nH]c(=O)n4c(=O)c23)cc(OC)c1OC` [Compound 10c, 8-(4-Chlorophenyl)-6–(3,4,5-trimethoxyphenyl)-1,2-dihydropyrido[2,3-d][1,2, 4]triazolo[4,3-a]pyrimidine-3,5-dione] yielded a melting point of 367 to 369 °C. Further, the inhibition at 100 µM in the series with breast cancer (MCF-7) (Homo sapiens) was 8%. In addition, in the series with prostate cancer (PC-3) (Homo sapiens), the inhibition at 100 µM is 52%. For the same molecule, the inhibition at 100 µM in the series with colon cancer (HCT-116) (Homo sapiens) was found to be 23%. In addition, the inhibition at 100 µM with lung cancer (A-549) (Homo sapiens) came out at 9%.

The molecule `COc1cc(-c2cc(-c3ccc(C)cc3)nc3nc4[nH][nH]c(=O)n4c(=O)c23)cc(OC)c1OC` [Compound 10d, 8-(p-Tolyl)-6–(3,4,5-trimethoxyphenyl)-1,2-dihydropyrido[2,3-d][1,2, 4]triazolo [4,3-a]pyrimidine-3,5-dione] yielded a melting point of 391 to 393 °C. Further, in the series with breast cancer (MCF-7) (Homo sapiens), the inhibition at 100 µM was 5%. Also, the inhibition at 100 µM with prostate cancer (PC-3) (Homo sapiens) is 8%. Besides, the inhibition at 100 µM in the series with colon cancer (HCT-116) (Homo sapiens) was found to be 5%. Further, the inhibition at 100 µM in the series on lung cancer (A-549) (Homo sapiens) amounted to 2%.

`Cc1ccc(-c2cc(-c3ccc(Cl)cc3)nc3nc4[nH]nc(-c5ccccc5)n4c(=O)c23)cc1` [Compound 12a, 8–(4-Chlorophenyl)-3-phenyl-6-(p-tolyl)pyrido[2,3-d][1,2, 4]triazolo[4,3-a]pyrimidin-5(1H)-one]: the melting point was 315 to 317 °C. Besides, the inhibition at 100 µM in the series on breast cancer (MCF-7) (Homo sapiens) worked out at 45%. For the same molecule, the inhibition at 100 µM in the series on prostate cancer (PC-3) (Homo sapiens) was 28%. In addition, the inhibition at 100 µM in the series with colon cancer (HCT-116) (Homo sapiens) turned out to be 35%. In addition, the inhibition at 100 µM in the series with lung cancer (A-549) (Homo sapiens) worked out at 41%.

Usually IC50 stands for the concentration that inhibits the measured activity by half. As to `COc1ccc(-c2cc(-c3ccc(C)cc3)nc3nc4[nH]nc(-c5ccccc5)n4c(=O)c23)cc1` [Compound 12b, 6-(4-Methoxyphenyl)-3-phenyl-8-(p-tolyl)pyrido[2,3-d][1,2, 4]triazolo[4,3-a]pyrimidin-5(1H)-one], the melting point is 325 to 327 °C. Also, the inhibition at 100 µM in the series on breast cancer (MCF-7) (Homo sapiens) worked out at 54%. For the same molecule, in the series with prostate cancer (PC-3) (Homo sapiens), the inhibition at 100 µM was determined as 36%. Further, in the series on colon cancer (HCT-116) (Homo sapiens), the inhibition at 100 µM turned out to be 56%. Besides, the IC50 in the series with colon cancer (HCT-116) (Homo sapiens, HCT-116, read-out: IC50 HCT-116) is 86.3 ± 2.2 µM. In the series on colon cancer (HCT-116) (MTT), the “Cytotoxic activity against HCT-116” value is “mild cytotoxic activity”. Besides, the inhibition at 100 µM with lung cancer (A-549) (Homo sapiens) came out at 33%.

As for `COc1cc(-c2cc(-c3ccc(Cl)cc3)nc3nc4[nH]nc(-c5ccccc5)n4c(=O)c23)cc(OC)c1OC` [Compound 12c, 8-(4-Chlorophenyl)-3-phenyl-6–(3,4,5-trimethoxyphenyl)pyrido[2,3-d][1,2, 4]triazolo[4,3-a]pyrimidin-5(1H)-one], the melting point was in the range of 313 to 315 °C. Besides, the inhibition at 100 µM with breast cancer (MCF-7) (Homo sapiens) was found to be 55%. In addition, the inhibition at 100 µM with prostate cancer (PC-3) (Homo sapiens) was 30%. The inhibition at 100 µM in the series on colon cancer (HCT-116) (Homo sapiens) turned out to be 33%. Further, in the series on lung cancer (A-549) (Homo sapiens), the inhibition at 100 µM amounted to 22%.

On to `COc1cccc2c1C(=O)c1c(O)c3c(c(O)c1C2=O)C[C@@](O)(C(=O)CO)C[C@@H]3O[C@H]1C[C@H](N)[C@H](O)[C@H](C)O1` [Doxorubicin, reference compound], for which the inhibition at 100 µM with breast cancer (MCF-7) (Homo sapiens), with prostate cancer (PC-3) (Homo sapiens), in the series with colon cancer (HCT-116) (Homo sapiens) and with lung cancer (A-549) (Homo sapiens) was 100% throughout.

On to `C#Cc1cccc(Nc2ncnc3cc(OCCOC)c(OCCOC)cc23)c1` [Erlotinib, reference compound], for which the IC50 in the series on breast cancer (MCF-7) (Homo sapiens, MCF7, read-out: IC50 MCF-7) was 4.21 ± 0.62 µM; in the series on prostate cancer (PC-3) (Homo sapiens, read-out: IC50 PC-3) it was 11.1 ± 1.07 µM; in the series with lung cancer (A-549) (Homo sapiens, A549, read-out: IC50 A-549), 6.53 ± 0.82 µM.
